The target in the first assay is T1, human Keap1 kelch domain (amino acids Ala321 -Thr609) (Homo sapiens, UniProt Q14145).
T1 construct: human Keap1 kelch domain (amino acids Ala321 -Thr609)
T1 sequence (Q14145 321-609): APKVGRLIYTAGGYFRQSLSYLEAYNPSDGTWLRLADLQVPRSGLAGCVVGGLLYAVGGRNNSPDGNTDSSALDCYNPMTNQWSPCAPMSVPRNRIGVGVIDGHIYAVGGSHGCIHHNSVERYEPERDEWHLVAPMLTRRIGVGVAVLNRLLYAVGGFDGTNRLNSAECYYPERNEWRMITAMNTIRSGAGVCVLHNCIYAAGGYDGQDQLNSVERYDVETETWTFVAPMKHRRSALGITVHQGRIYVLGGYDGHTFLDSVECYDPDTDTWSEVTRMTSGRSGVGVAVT
Put plainly: Keap1-Nrf2 peptide binding assay (fluorescence polarisation). To be noted: Keap1 kelch domain 20 nM, fluorescently labeled Nrf2 peptide 50 nM. How it is done: A fluorescence polarisation assay was used to measure binding of the human Keap1 kelch domain (amino acids Ala321 -Thr609) to a fluorescently labeled peptide containing a Keap1 binding site of human Nrf2 (Alexa633-AFFAQLQLDEETGEFL; JPT Technologies, Berlin, Germany). Two microliters of test compound in reaction buffer (phosphate-buffered saline, 2 mM DL-dithiothreitol, 0.015 % (v/v) Brij-35) containing 6 % (v/v) DMSO were mixed with two microliters of the Keap1 kelch domain in reaction buffer in a black 384-well small volume microtiter plate and incubated at ambient temperature for 15 minutes. Thereafter, two microliters were added of the fluorescently labeled Nrf2 peptide in reaction buffer, and the mixture was incubated for a further 30 minutes at ambient temperature. Final concentrations of the Keap1 kelch domain and the fluorescently labeled Nrf2 peptide were 20 nM and 50 nM, respectively.
Fluorescence polarization (FP) was measured at excitation and emission wavelengths of 635 nm and 660 nm, respectively. Positive controls for binding (two microliters of reaction buffer containing 6 % (v/v) DMSO instead of test compound in the same buffer) and negative controls (as positive controls, but without Keap1 kelch domain) were included on each microtiter plate. Data were expressed as percent-inhibition values: percent inhibition = 100⋅(1(|FPcompound-FPnegative control|)/(|FPpositive control-FPnegative control|)) [formula]
IC50 values were determined by testing different compound concentrations and fitting the resulting percent-inhibition values to the following equation using XLFit4: percent inhibition = A + (B-A)/(1 + (((IC50)/([Compound])))^D) [formula]
Parameter A was set to zero, pre-fit values for parameters B and D were set to 100 and 1, respectively.
A general note: Fluorescence polarisation rises when a labelled molecule tumbles more slowly, as on binding a larger partner.
The term IC50 denotes the point on the concentration scale where inhibition reaches its midpoint. Take `Cc1cc(C)c(C)c(S(=O)(=O)Nc2cc(-c3ccc(C(=O)O)cc3)cc3ccccc23)c1C` [Example 1, 4-[4-[(2,3,5,6-tetramethylphenyl)sulfonylamino]-2-naphthyl]benzoic acid]: the half-inhibitory concentration (IC50) turned out to be 2.5 µM.
The same measure, in the same setting: as for `Cc1cc(C)c(C)c(S(=O)(=O)Nc2cc(-c3cccc(C(=O)O)c3)cc3ccccc23)c1C` [Example 4, 3-[4-[(2,3,5,6-tetramethylphenyl)sulfonylamino]-2-naphthyl]benzoic acid], the figure is 1.5 µM; as for `CC(=O)Nc1cc(C(=O)O)cc(-c2cc(NS(=O)(=O)c3c(C)c(C)cc(C)c3C)c3ccccc3c2)c1` [Example 9, 3-acetamido-5-[4-[(2,3,5,6-tetramethylphenyl)sulfonylamino]-2-naphthyl]benzoic acid], 0.4 µM.

Staying with this assay, now noted: Keap1 kelch domain 20 nM, fluorescently labeled Nrf2 peptide 50 nM, read-out: IC50.
For the molecule `Cc1cc(C)c(C)c(S(=O)(=O)Nc2cc(-c3ccc(O)c(C(=O)O)c3)cc3ccccc23)c1C` [Example 2, 2-hydroxy-5-[4-[(2,3,5,6-tetramethylphenyl)sulfonylamino]-2-naphthyl]benzoic acid], the half-maximal inhibitory concentration (IC50) came to 4.1 µM.
For `Cc1cc(C)c(C)c(S(=O)(=O)Nc2cc(-c3cncc(C(=O)O)c3)cc3ccccc23)c1C` [Example 3, 5-[4-[(2,3,5,6-tetramethylphenyl)sulfonylamino]-2-naphthyl]pyridine-3-carboxylic acid], the half-inhibitory concentration (IC50) stood at 1.9 µM.
Same read-out and setting: then `Cc1cc(C)c(C)c(S(=O)(=O)Nc2cc(-c3cc(F)cc(C(=O)O)c3)cc3ccccc23)c1C` [Example 5, 3-fluoro-5-[4-[(2,3,5,6-tetramethylphenyl)sulfonylamino]-2-naphthyl]benzoic acid], with 2.1 µM; and `Cc1cc(C)c(C)c(S(=O)(=O)Nc2cc(-c3cccc(C(=O)O)c3F)cc3ccccc23)c1C` [Example 6, 2-fluoro-3-[4-[(2,3,5,6-tetramethylphenyl)sulfonylamino]-2-naphthyl]benzoic acid], with 5.6 µM; and `Cc1cc(C)c(C)c(S(=O)(=O)Nc2cc(-c3cc(Cl)cc(C(=O)O)c3)cc3ccccc23)c1C` [Example 7, 3-chloro-5-[4-[(2,3,5,6-tetramethylphenyl)sulfonylamino]-2-naphthyl]benzoic acid], with 3.3 µM.
On the same count and under the same terms, as for `Cc1cc(C)c(C)c(S(=O)(=O)Nc2cc(-c3ccc(Cl)c(C(=O)O)c3)cc3ccccc23)c1C` [Example 8, 2-chloro-5-[4-[(2,3,5,6-tetramethylphenyl)sulfonylamino]-2-naphthyl]benzoic acid], the figure is 1.6 µM; as for `Cc1cc(C)c(C)c(S(=O)(=O)Nc2cc(-c3ccc(F)c(C(=O)O)c3)cc3ccccc23)c1C` [Example 10, 2-fluoro-5-[4-[(2,3,5,6-tetramethylphenyl)sulfonylamino]-2-naphthyl]benzoic acid], 1.8 µM; as for `Cc1cc(C)c(C)c(S(=O)(=O)Nc2cc(-c3cc(C(=O)O)n(C)n3)cc3ccccc23)c1C` [Example 11, 2-methyl-5-[4-[(2,3,5,6-tetramethylphenyl)sulfonylamino]-2-naphthyl]pyrazole-3-carboxylic acid], 5.7 µM.
Same read-out and setting: as for `Cc1cc(C)c(C)c(S(=O)(=O)Nc2cc(-c3ccc(C(=O)O)s3)cc3ccccc23)c1C` [Example 12, 5-[4-[(2,3,5,6-tetramethylphenyl)sulfonylamino]-2-naphthyl]thiophene-2-carboxylic acid], the figure is 12 µM.

(Values after patent EP2998295A1, “Aryl substituted naphthyl sulfonamide derivatives as keap-1 modulators for the treatment of diabetes, obesity, dyslipidemia and related disorders” (SANOFI, priority 2014, dated 2016).)
